Measured values reported in ChEMBL document CHEMBL3120093 (J Med Chem, 2014).
Values belong to the compound of their own block, whether it stands above or below them.

How the values were obtained:
[1] = Permeability of the compound at PH 7.4 by PAMPA; format: ADME; settings: for Papp: read-out: permeability
[2] = Drug uptake in rat liver at 5 mg/kg, po after 4 hrs; format: ADME, organism-based; set-up: dose 5 mg/kg, route oral; settings: read-out: Drug uptake
[3] = Plasma concentration in rat at 5 mg/kg, po after 4 hrs; format: ADME, organism-based; set-up: dose 5 mg/kg, route oral
[4] = AUC in rat at 5 mg/kg, po after 4 hrs; format: ADME, organism-based; set-up: time < 4 hr, dose 5 mg/kg, route oral; settings: plasma
[5] = Oral bioavailability in mouse at 20 mg/kg after 24 hrs; format: ADME, organism-based; settings: plasma
[6] = AUC in mouse at 20 mg/kg, po after 24 hrs; format: ADME, organism-based; set-up: time < 24 hr, dose 20 mg/kg, route oral; settings: plasma
[7] = Drug uptake in mouse liver at 20 mg/kg, po after 24 hrs; format: ADME, organism-based; set-up: dose 20 mg/kg, route oral; settings: read-out: Drug uptake
[8] = Plasma concentration in mouse at 20 mg/kg, po after 24 hrs; format: ADME, organism-based; set-up: dose 20 mg/kg, route oral
[9] = Volume of distribution in mouse at 5 mg/kg, iv after 24 hrs; format: ADME, organism-based; set-up: dose 5 mg/kg, route intravenous; settings: in vivo
[10] = Half life in mouse at 5 mg/kg, iv after 24 hrs; format: ADME, organism-based; set-up: dose 5 mg/kg, route intravenous; settings: in vivo
[11] = Plasma concentration in dog at 3 mg/kg, po after 24 hrs; format: ADME, organism-based, Canis lupus familiaris; set-up: dose 3 mg/kg, route oral
[12] = Oral bioavailability in dog at 3 mg/kg after 24 hrs; format: ADME, organism-based, Canis lupus familiaris; settings: plasma
[13] = AUC in dog at 3 mg/kg, po after 24 hrs; format: ADME, organism-based, Canis lupus familiaris; set-up: time < 24 hr, dose 3 mg/kg, route oral; settings: plasma
[14] = Clearance in mouse at 5 mg/kg, iv after 24 hrs; format: ADME, organism-based; set-up: dose 5 mg/kg, route intravenous; settings: in vivo
[15] = Volume of distribution in dog at 1 mg/kg, iv after 24 hrs; format: ADME, organism-based, Canis lupus familiaris; set-up: dose 1 mg/kg, route intravenous; settings: in vivo
[16] = Half life in rat at 2 mg/kg, iv after 24 hrs; format: ADME, organism-based; set-up: dose 2 mg/kg, route intravenous; settings: in vivo
[17] = Volume of distribution in rat at 2 mg/kg, iv after 24 hrs; format: ADME, organism-based; set-up: dose 2 mg/kg, route intravenous; settings: in vivo
[18] = Clearance in rat at 2 mg/kg, iv after 24 hrs; format: ADME, organism-based; set-up: dose 2 mg/kg, route intravenous; settings: in vivo
[19] = Clearance in rat at 2 mg/kg, iv after 4 hrs; format: ADME, organism-based; set-up: dose 2 mg/kg, route intravenous; settings: in vivo
[20] = Oral bioavailability in rat at 5 mg/kg after 24 hrs; format: ADME, organism-based; settings: in vivo
[21] = AUC in rat at 5 mg/kg, po after 24 hrs; format: ADME, organism-based; set-up: time < 24 hr, dose 5 mg/kg, route oral; settings: plasma

Compound: COC(=O)N[C@H](C)C(=O)N1CCC[C@H]1c1ncc(-c2ccc(-c3ccc(-c4cnc([C@@H]5CCCN5C(=O)[C@@H](C)NC(=O)OC)[nH]4)cc3)cc2)[nH]1
Papp [1]: 4.7 ×10⁻⁶ cm/s

Compound: CCOC(=O)N[C@@H](C)C(=O)N1CCC[C@H]1c1ncc(-c2ccc(-c3ccc(-c4cnc([C@@H]5CCCN5C(=O)[C@H](C)NC(=O)OCC)[nH]4)cc3)cc2)[nH]1
Papp [1]: 45.1 ×10⁻⁶ cm/s

Compound: COC(=O)NC(C)(C)C(=O)N1CCC[C@H]1c1ncc(-c2ccc(-c3ccc(-c4cnc([C@@H]5CCCN5C(=O)C(C)(C)NC(=O)OC)[nH]4)cc3)cc2)[nH]1
Papp [1]: 2.6 ×10⁻⁶ cm/s

Compound: COC(=O)NC1(C(=O)N2CCC[C@H]2c2ncc(-c3ccc(-c4ccc(-c5cnc([C@@H]6CCCN6C(=O)C6(NC(=O)OC)CC6)[nH]5)cc4)cc3)[nH]2)CC1
Papp [1]: 0.2 ×10⁻⁶ cm/s

Compound: CCN(CC)[C@@H](C(=O)N1CCC[C@H]1c1ncc(-c2ccc(-c3ccc(-c4cnc([C@@H]5CCCN5C(=O)[C@@H](c5ccccc5)N(CC)CC)[nH]4)cc3)cc2)[nH]1)c1ccccc1
clearance [19]: 4 mL/min/kg
concentration at 4 h [3]: 6 nM
concentration at 4 h [2]: 1090 nM
AUC at 4 h [4]: 0.013 µM·h
Papp [1]: 25.5 ×10⁻⁶ cm/s

Compound: COC(=O)N[C@@H](C(=O)N1CCC[C@H]1c1ncc(-c2ccc(-c3ccc(-c4cnc([C@@H]5CCCN5C(=O)[C@H](NC(=O)OC)c5ccccc5)[nH]4)cn3)cc2)[nH]1)c1ccccc1
Papp [1]: 17.7 ×10⁻⁶ cm/s

Compound: COC(=O)N[C@@H](C(=O)N1CCC[C@H]1c1ncc(-c2ccc(-c3ccc(-c4cnc([C@@H]5CCCN5C(=O)[C@H](NC(=O)OC)c5ccccc5)[nH]4)nc3)cc2)[nH]1)c1ccccc1
Papp [1]: 17.9 ×10⁻⁶ cm/s

Compound: COC(=O)N[C@@H](C(=O)N1CCC[C@H]1c1ncc(-c2ccc(-c3ncc(-c4cnc([C@@H]5CCCN5C(=O)[C@H](NC(=O)OC)c5ccccc5)[nH]4)cn3)cc2)[nH]1)c1ccccc1
bioavailability [20]: 0.5%
half-life [16]: 1.7 h
AUC at 24 h [21]: 0.021 µM·h
Vd [17]: 1.7 L/kg
clearance [18]: 36 mL/min/kg
Papp [1]: 18.6 ×10⁻⁶ cm/s

Compound: O=C(C(c1ccccc1)N1CC[C@H](F)C1)N1CCC[C@H]1c1ncc(-c2ccc(-c3ccc(-c4cnc([C@@H]5CCCN5C(=O)C(c5ccccc5)N5CC[C@H](F)C5)[nH]4)cc3)cc2)[nH]1 (stereo in doubt; 21)
permeability [1]: impermeable

Further lines, results first:

concentration at 4 h [2]: 26.2 nM
Papp [1]: 16.4 ×10⁻⁶ cm/s
Compound: COC(=O)NCC(=O)N1CCC[C@H]1c1ncc(-c2ccc(-c3ccc(-c4cnc([C@@H]5CCCN5C(=O)[C@H](NC(=O)OC)c5ccccc5)[nH]4)cc3)cc2)[nH]1

Papp [1]: 50 ×10⁻⁶ cm/s
Compound: COC(=O)N[C@@H](C(=O)N1CCC[C@H]1c1ncc(-c2ccc(-c3ccc(-c4cnc([C@@H]5CCCN5C(C)=O)[nH]4)cc3)cc2)[nH]1)c1ccccc1

concentration at 4 h [3]: 27 nM
concentration at 4 h [2]: 802 nM
AUC at 4 h [4]: 0.127 µM·h
Papp [1]: 48 ×10⁻⁶ cm/s
Compound: COC(=O)N[C@@H](C(=O)N1CCC[C@H]1c1ncc(-c2ccc(-c3ccc(-c4cnc([C@@H]5CCCN5C(=O)[C@@H]5CCCO5)[nH]4)cc3)cc2)[nH]1)c1ccccc1

bioavailability [5]: 6%
AUC at 24 h [6]: 1.42 µM·h
concentration at 24 h [7]: 539 nM
concentration at 24 h [8]: 25 nM
Vd [9]: 14 L/kg
half-life [10]: 7.8 h
concentration at 24 h [11]: 30 nM
bioavailability [12]: 60%
AUC at 24 h [13]: 0.436 µM·h
clearance [14]: 18 mL/min/kg
Vd [15]: 82 L/kg
half-life [16]: 14 h
Vd [17]: 60 L/kg
clearance [18]: 57 mL/min/kg
Papp [1]: 15.8 ×10⁻⁶ cm/s
Compound: CN(C)[C@@H](C(=O)N1CCC[C@H]1c1ncc(-c2ccc(-c3ccc(-c4cnc([C@@H]5CCCN5C(=O)[C@H]5CCCO5)[nH]4)cc3)cc2)[nH]1)c1ccccc1

concentration at 4 h [3]: 27 nM
concentration at 4 h [2]: 563 nM
AUC at 4 h [4]: 0.062 µM·h
Papp [1]: 20 ×10⁻⁶ cm/s
Compound: CN(C)[C@@H](C(=O)N1CCC[C@H]1c1ncc(-c2ccc(-c3ccc(-c4cnc([C@@H]5CCCN5C(=O)[C@@H]5CCCO5)[nH]4)cc3)cc2)[nH]1)c1ccccc1

clearance [19]: 88 mL/min/kg
concentration at 4 h [3]: 2 nM
concentration at 4 h [2]: 1980 nM
AUC at 4 h [4]: 0.006 µM·h
Papp [1]: 10.6 ×10⁻⁶ cm/s
Compound: CCN(C)[C@@H](C(=O)N1CCC[C@H]1c1ncc(-c2ccc(-c3ccc(-c4cnc([C@@H]5CCCN5C(=O)[C@@H](c5ccccc5)N(C)CC)[nH]4)cc3)cc2)[nH]1)c1ccccc1
